Test results as given in the supplement of paper PMC6045584.
± gives the standard deviation of the averaged measurements.

What was measured:
[1] = compound: COc1ccc(-c2cc3c(C)nc(N)nc3n([C@H]3CC[C@H](OCCO)CC3)c2=O)cn1; experiment: surviving fraction relative to DMSO-only wells; higher = less growth inhibition; conditions: exposure time: 5 days
How it was run: (§1)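 Tumour cell lines were seeded in log phase at 250–500 cells per well into 384-well plates. Starting 24 hours later, inhibitors were present continuously for five days at 0.5, 1, 5, 10, 50, 100, 500 and 1000 nM. Surviving fraction, from CellTiter-Glo luminescence, is normalised to the median of DMSO-only wells. Three screens per line were required, with replicate Pearson r >0.7 and median Z' >0.3 for a line to be kept.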

MK-1775 = compound: C=CCn1c(=O)c2cnc(Nc3ccc(N4CCN(C)CC4)cc3)nc2n1-c1cccc(C(C)(C)O)n1 [MK-1775]; experiment: as above; conditions: exposure time: 5 days
How it was run: as §1

| Test System | surviving fraction ([1]; 0.5 nM) | surviving fraction ([1]; 1 nM) | surviving fraction ([1]; 5 nM) | surviving fraction ([1]; 10 nM) | surviving fraction ([1]; 50 nM) | surviving fraction ([1]; 100 nM) | surviving fraction ([1]; 500 nM) | surviving fraction ([1]; 1000 nM) | surviving fraction (MK-1775; 0.5 nM) | surviving fraction (MK-1775; 1 nM) | surviving fraction (MK-1775; 5 nM) | surviving fraction (MK-1775; 10 nM) | surviving fraction (MK-1775; 50 nM) | surviving fraction (MK-1775; 100 nM) | surviving fraction (MK-1775; 500 nM) | surviving fraction (MK-1775; 1000 nM) |
| --- | --- | --- | --- | --- | --- | --- | --- | --- | --- | --- | --- | --- | --- | --- | --- | --- |
| G292 BONE | 0.951 ± 0.026 | 0.971 ± 0.037 | 0.853 ± 0.042 | 0.78 ± 0.011 | 0.422 ± 0.027 | 0.305 ± 0.013 | 0.124 ± 0.003 | 0.0955 ± 0.001 | 0.974 ± 0.034 | 0.946 ± 0.011 | 0.997 ± 0.018 | 1.03 ± 0.02 | 0.961 ± 0.032 | 0.821 ± 0.021 | 0.289 ± 0.014 | 0.216 ± 0.0088 |
| HCC38 BREAST | 0.974 ± 0.14 | 1.13 ± 0.17 | 1.21 ± 0.02 | 1.08 ± 0.069 | 1.14 ± 0.14 | 1.01 ± 0.34 | 0.409 ± 0.083 | 0.223 ± 0.046 | 1.33 ± 0.27 | 1.23 ± 0.048 | 1.33 ± 0.15 | 1.16 ± 0.072 | 0.773 ± 0.24 | 0.491 ± 0.065 | 0.0837 ± 0.006 | 0.069 ± 0.013 |
| HCC70 BREAST | 1.01 ± 0.091 | 1.02 ± 0.092 | 1.06 ± 0.097 | 0.98 ± 0.026 | 0.623 ± 0.051 | 0.346 ± 0.011 | 0.111 ± 0.036 | 0.056 ± 0.0061 | 1.03 ± 0.065 | 1.02 ± 0.067 | 1.09 ± 0.033 | 1 ± 0.11 | 0.815 ± 0.062 | 0.281 ± 0.021 | 0.073 ± 0.0076 | 0.0593 ± 0.012 |
| HMLE3 BREAST | 0.914 ± 0.04 | 0.918 ± 0.061 | 0.858 ± 0.12 | 0.83 ± 0.035 | 0.611 ± 0.043 | 0.446 ± 0.024 | 0.121 ± 0.01 | 0.0777 ± 0.0064 | 0.955 ± 0.013 | 0.985 ± 0.066 | 1.04 ± 0.071 | 0.999 ± 0.02 | 0.992 ± 0.065 | 0.888 ± 0.061 | 0.448 ± 0.058 | 0.168 ± 0.026 |
| HMT3552 BREAST | 0.941 | 0.913 | 0.883 | 0.813 | 0.535 | 0.279 | 0.09 | 0.077 | 1.05 | 1.02 | 0.977 | 1.01 | 0.542 | 0.142 | 0.069 | 0.072 |
| HS57T BREAST | 0.946 ± 0.059 | 1.01 ± 0.07 | 0.959 ± 0.026 | 0.939 ± 0.033 | 0.6 ± 0.023 | 0.429 ± 0.034 | 0.148 ± 0.004 | 0.117 ± 0.0076 | 0.969 ± 0.04 | 1.04 ± 0.017 | 1.06 ± 0.06 | 0.963 ± 0.029 | 0.597 ± 0.018 | 0.336 ± 0.041 | 0.134 ± 0.0042 | 0.098 ± 0.011 |
| HS578T BREAST | 0.864 ± 0.19 | 0.946 ± 0.1 | 0.811 ± 0.047 | 0.759 ± 0.12 | 0.547 ± 0.048 | 0.403 ± 0.028 | 0.17 ± 0.008 | 0.111 ± 0.004 | 0.828 ± 0.085 | 0.84 ± 0.11 | 0.872 ± 0.087 | 0.782 ± 0.1 | 0.559 ± 0.091 | 0.354 ± 0.035 | 0.204 ± 0.0082 | 0.128 ± 0.0087 |
